# Measured values from patent US20260109707A1, “HETEROBIFUNCTIONAL COMPOUNDS AND METHODS OF TREATING DISEASE” (Halda Therapeutics OpCo. Inc., priority 2022, published 2026).
# Where two headings read alike, the source gives them in different places.
# Assays:
# VCaP cells = experiment: Cellular growth inhibition assay for VCaP cells (CellTiter-Glo, 72 hours); assay type: cell-based, human
# Experimental: VCaP cells were purchased from American Type Cell Culture (ATCC Cat #CRL2876) and then seeded on poly-D-lysine coated, black clear-bottom 384-well plates at 5000/well in 25 μL Dulbecco's Modified Eagle Medium (DMEM) supplemented with 10% w/w Fetal bovine serum (FBS) and 1% w/w Pen-Strep. Pen-Strep is a commercially available mixture of penicillin G and streptomycin, which is used in mammalian cell culture media to prevent bacterial contamination. Dulbecco's Modified Eagle Medium (DMEM) supplemented with 10% w/w fetal bovine serum (FBS) and 1% w/w Pen-Strep is herein referred to as Treatment Medium. Following seeding of cells in the plates, the plates were spun at 300×g for 30 seconds, then equilibrated to room temperature for 30 minutes, and then deposited in a humidified tissue culture incubator maintained at 37° C. with 5% C0-2.
# At 24 hours after seeding of the cells, dilutions of test compound were prepared in DMSO and dissolved in Treatment Medium, to achieve a final DMSO concentration of 0.5% w/w, thereby providing the Test Compound Solution. A 25 μL aliquot of the Test Compound Solution was added to cells in the well plates. An equal volume of a solution containing DMSO and Treatment Medium was used as a negative control. Following treatment of cells with Test Compound Solution or said equal volume of a solution containing DMSO and Treatment Medium, the plates were spun at 300×g for 30 seconds, and then left in an incubator for 72 hours.
# At the end of the treatment duration, cell viability was quantified with CellTiter-Glo 2.0 reagent (Promega Cat #G9243). For this purpose, plates were equilibrated to room temperature for 30 minutes, and then 25 μL of CellTiter-Glo 2.0 reagent was added to cells in the plate wells. Plates were then agitated on a shaker for two minutes at 500 rpm and subsequently incubated at room temperature for 10 minutes. Following incubation, the plates were spun at 3000×g for 30 seconds, then sealed with an optical adhesive cover, and luminescence readings were measured with an EnVision Plate Reader.
# Data was normalized using zero luminescence for baseline. A four-parameter non-linear regression curve fit was applied to dose-response data in GraphPad Prism data analysis software to determine the half-maximal growth inhibitory concentration (GI50) for each test compound.
# [1] = system: T-Rex 293 cell line SC3 cells lacking increased expression of androgen receptor protein; experiment: Cellular growth inhibition assay, T-Rex 293 SC3 cells without doxycycline (CellTiter-Glo, 72 hours); assay type: cell-based; conditions: T-Rex 293 cell line SC3 cells not exposed to doxycycline (lacking increased androgen receptor expression)
# Summary of the method: (§1)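 Growth inhibition is measured in an inducible AR-expressing T-Rex 293 clone, SC3, cultured with or without 10 ng/mL doxycycline in hormone-depleted medium. Test compounds are applied for 72 hours. GI50 values derive from CellTiter-Glo 2.0 signal fitted by four-parameter regression.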
# [2] = system: T-Rex 293 cell line SC3 cells having increased expression of androgen receptor protein due to exposure to doxycycline; experiment: Cellular growth inhibition assay, T-Rex 293 SC3 cells with doxycycline (CellTiter-Glo, 72 hours); assay type: cell-based; conditions: T-Rex 293 SC3 cells with increased androgen receptor expression due to doxycycline (10 ng/mL)
# Summary of the method: as §1
Structure (SMILES),"GI50 (VCaP cells; Homo sapiens, VCaP, 72 h)",GI50 ([1]; 72 h),GI50 ([2]; 72 h),GI50 [1],GI50 [2],GI50 (VCaP cells)
Cc1sc2c(c1C)C(c1ccc(N3CC(C4CCN(c5ccc(C(=O)N[C@H]6CC[C@H](Oc7ccc(C#N)c(Cl)c7)CC6)nn5)CC4)C3)cc1)=NCc1nnc(C)n1-2 [I-451],0.5 to 1.5 µM,> 3 µM,< 0.5 µM,–,–,–
Cc1sc2c(c1C)C(c1ccc(OC3CC4(C3)CC3(CCN(c5ccc(C(=O)N[C@H]6CC[C@H](Oc7ccc(C#N)c(Cl)c7)CC6)nn5)CC3)C4)cc1)=NC1(CC1)c1nnc(C)n1-2 [I-452],< 0.5 µM,> 3 µM,< 0.5 µM,–,–,–
Cc1sc2c(c1C)C(c1ccc(OC3CC4(C3)CC3(CCN(c5ccc(C(=O)N[C@H]6CC[C@H](Oc7ccc(C#N)c(Cl)c7)CC6)nn5)CC3)C4)cc1)=NCc1nnc(C)n1-2 [I-453],< 0.5 µM,> 3 µM,< 0.5 µM,–,–,–
Cc1sc2c(c1C)C(c1ccc(C#CC3CC4(CCCN(c5ccc(C(=O)N[C@H]6CC[C@H](Oc7ccc(C#N)c(Cl)c7)CC6)nn5)C4)C3)cn1)=NC(C)c1nnc(C)n1-2 (stereo partly drawn) [I-454],< 0.5 µM,–,–,> 3 µM,< 0.5 µM,–
Cc1sc2c(c1C)C(c1ccc(C#CC3CC4(CCCN(c5ccc(C(=O)N[C@H]6CC[C@H](Oc7ccc(C#N)c(Cl)c7)CC6)nn5)C4)C3)cn1)=NC(C)c1nnc(C)n1-2 (stereo partly drawn) [I-455],–,–,–,> 3 µM,< 0.5 µM,< 0.5 µM
Cc1sc2c(c1C)C(c1ccc(C#CC3CC4(CCCN(c5ccc(C(=O)N[C@H]6CC[C@H](Oc7ccc(C#N)c(Cl)c7)CC6)nn5)C4)C3)cn1)=NC(C)c1nnc(C)n1-2 (stereo partly drawn) [I-456],–,–,–,0.5 to 1.5 µM,< 0.5 µM,0.5 to 1.5 µM
Cc1sc2c(c1C)C(c1ccc(C#CC3CC4(C3)CN(c3ccc(C(=O)N[C@H]5CC[C@H](Oc6ccc(C#N)c(Cl)c6)CC5)nn3)C4)cn1)=NC(C)c1nnc(C)n1-2 (stereo partly drawn) [I-457],< 0.5 µM,> 3 µM,< 0.5 µM,–,–,–
Cc1sc2c(c1C)C(c1ccc(C#CC3CC4(C3)CN(c3ccc(C(=O)N[C@H]5CC[C@H](Oc6ccc(C#N)c(Cl)c6)CC5)nn3)C4)cn1)=N[C@@H](C)c1nnc(C)n1-2 [I-458],< 0.5 µM,< 0.5 µM,< 0.5 µM,–,–,–
Cc1sc2c(c1C)C(c1ccc(C#CC3CC4(CCCN(c5ccc(C(=O)N[C@H]6CC[C@H](Oc7ccc(C#N)c(Cl)c7)CC6)nn5)C4)C3)nc1)=N[C@@H](C)c1nnc(C)n1-2 (stereo partly drawn) [I-459],< 0.5 µM,< 0.5 µM,< 0.5 µM,–,–,–
Cc1sc2c(c1C)C(c1ccc(C#CC3CC4(CCCN(c5ccc(C(=O)N[C@H]6CC[C@H](Oc7ccc(C#N)c(Cl)c7)CC6)nn5)C4)C3)nc1)=N[C@@H](C)c1nnc(C)n1-2 (stereo partly drawn) [I-460],–,–,–,0.5 to 1.5 µM,< 0.5 µM,< 0.5 µM
Cc1sc2c(c1C)C(c1ccc(OC3CC4(CCN(c5ccc(C(=O)N[C@H]6CC[C@H](Oc7ccc(C#N)c(Cl)c7)CC6)nn5)CC4)C3)cn1)=N[C@@H](C)c1nnc(C)n1-2 [I-461],< 0.5 µM,–,–,> 3 µM,< 0.5 µM,–
Cc1sc2c(c1C)C(c1ccc(OC3CC4(CCN(c5ccc(C(=O)N[C@H]6CC[C@H](Oc7ccc(C#N)c(Cl)c7)CC6)nn5)CC4)C3)nc1)=N[C@@H](C)c1nnc(C)n1-2 [I-462],–,–,–,> 3 µM,< 0.5 µM,< 0.5 µM
Cc1sc2c(c1C)C(c1ccc(N3CC(C4CCN(c5ccc(C(=O)N[C@H]6CC[C@H](Oc7ccc(C#N)c(Cl)c7)CC6)nn5)CC4)C3)nc1)=N[C@@H](C)c1nnc(C)n1-2 [I-463],0.5 to 1.5 µM,0.5 to 1.5 µM,< 0.5 µM,–,–,–
Cc1sc2c(c1C)C(c1ccc(N3CC(C4CCN(c5ccc(C(=O)N[C@H]6CC[C@H](Oc7ccc(C#N)c(Cl)c7)CC6)nn5)CC4)C3)cn1)=N[C@@H](C)c1nnc(C)n1-2 [I-464],< 0.5 µM,> 3 µM,< 0.5 µM,–,–,–
Cc1sc2c(c1C)C(c1ccc(OC3CC4(C3)CC3(CCN(c5ccc(C(=O)N[C@H]6CC[C@H](Oc7ccc(C#N)c(Cl)c7)CC6)nn5)CC3)C4)cn1)=N[C@@H](C)c1nnc(C)n1-2 [I-465],< 0.5 µM,> 3 µM,< 0.5 µM,–,–,–
Cc1sc2c(c1C)C(c1ccc(CCN3[C@H](C)CN(c4ccc(C(=O)N[C@H]5CC[C@H](Oc6ccc(C#N)c(Cl)c6)CC5)nn4)C[C@@H]3C)cc1)=N[C@@H](Cc1ncco1)c1nnc(C)n1-2 [I-466],< 0.5 µM,< 0.5 µM,< 0.5 µM,–,–,–
Cc1sc2c(c1C)C(c1ccc(N3CCC(CCc4ccc(C(=O)N[C@H]5CC[C@H](Oc6ccc(C#N)c(Cl)c6)CC5)nn4)CC3)cc1)=N[C@@H](Cc1ncco1)c1nnc(C)n1-2 [I-467],< 0.5 µM,< 0.5 µM,< 0.5 µM,–,–,–
Cc1sc2c(c1C)C(c1ccc(OC3(C)CC4(CN(c5ccc(C(=O)N[C@H]6CC[C@H](Oc7ccc(C#N)c(Cl)c7)CC6)nn5)C4)C3)cc1)=N[C@@H](Cc1ncco1)c1nnc(C)n1-2 [I-468],< 0.5 µM,< 0.5 µM,< 0.5 µM,–,–,–
Cc1sc2c(c1C)C(c1ccc(N3CC4(CC(Cc5ccc(C(=O)N[C@H]6CC[C@H](Oc7ccc(C#N)c(Cl)c7)CC6)nn5)C4)C3)cc1)=N[C@@H](Cc1ncco1)c1nnc(C)n1-2 [I-469],< 0.5 µM,> 3 µM,< 0.5 µM,–,–,–
Cc1sc2c(c1C)C(c1ccc(OCC3CC4(CCCN(c5ccc(C(=O)N[C@H]6CC[C@H](Oc7ccc(C#N)c(Cl)c7)CC6)nn5)C4)C3)cc1)=NC1(CC1)c1nnc(C)n1-2 (stereo partly drawn) [I-470],–,–,< 0.5 µM,0.5 to 1.5 µM,–,0.5 to 1.5 µM
Cc1sc2c(c1C)C(c1ccc(OCC3CC4(CCCN(c5ccc(C(=O)N[C@H]6CC[C@H](Oc7ccc(C#N)c(Cl)c7)CC6)nn5)C4)C3)cc1)=NC1(CC1)c1nnc(C)n1-2 (stereo partly drawn) [I-471],–,–,–,> 3 µM,< 0.5 µM,1.5 to 3 µM
Cc1sc2c(c1C)C(c1ccc(OC3CC4(CCCN(c5ccc(C(=O)N[C@H]6CC[C@H](Oc7ccc(C#N)c(Cl)c7)CC6)nn5)C4)C3)cc1)=NCc1nnc(C)n1-2 (stereo partly drawn) [I-473],< 0.5 µM,> 3 µM,< 0.5 µM,–,–,–
Cc1sc2c(c1C)C(c1ccc(CC3CC4(CCCN(c5ccc(C(=O)N[C@H]6CC[C@H](Oc7ccc(C#N)c(Cl)c7)CC6)nn5)C4)C3)cc1)=NCc1nnc(C)n1-2 (stereo partly drawn) [I-474],–,–,< 0.5 µM,> 3 µM,–,> 3 µM
Cc1sc2c(c1C)C(c1ccc(OCC3CC4(CCCN(c5ccc(C(=O)N[C@H]6CC[C@H](Oc7ccc(C#N)c(Cl)c7)CC6)nn5)C4)C3)cc1)=NCc1nnc(C)n1-2 (stereo partly drawn) [I-475],–,–,< 0.5 µM,> 3 µM,–,< 0.5 µM
Cc1sc2c(c1C)C(c1ccc(N3CCC4(CCCN(c5ccc(C(=O)N[C@H]6CC[C@H](Oc7ccc(C#N)c(Cl)c7)CC6)nn5)C4)CC3)nc1)=NCc1nnc(C)n1-2 [I-476],< 0.5 µM,> 3 µM,< 0.5 µM,–,–,–
Cc1sc2c(c1C)C(c1ccc(N3CCC4(CC3)CCN(c3ccc(C(=O)N[C@H]5CC[C@H](Oc6ccc(C#N)c(Cl)c6)CC5)nn3)C4)nc1)=NC1(CC1)c1nnc(C)n1-2 [I-477],1.5 to 3 µM,0.5 to 1.5 µM,< 0.5 µM,–,–,–
Cc1sc2c(c1C)C(c1ccc(N3CC(C4CCN(c5ccc(C(=O)N[C@H]6CC[C@H](Oc7ccc(C#N)c(Cl)c7)CC6)nn5)CC4)C3)nc1)=NCc1nnc(C)n1-2 [I-478],< 0.5 µM,> 3 µM,< 0.5 µM,–,–,–
